# Key:
# thymocytes = experiment: "In vitro-ex vivo" mytogen (PHA, Con A)-induced murine thymocite proliferation; set-up: species or system mice; conditions: for Body weight / Thymus weight / Con A AUC (× 10^-3) / Con A I.S. (stimulation index) / PHA AUC (area under curve) / PHA I.S. (stimulation index) / Thymocytes No. (× 10^7): 25 mg/kg/day i.p. from day -4 to day -1; for Con A AUC (× 10^-3) / Con A I.S. (stimulation index): Con A-induced proliferation; for PHA AUC (area under curve) / PHA I.S. (stimulation index): PHA-induced proliferation; for extent of induced thymocyte proliferation (in words): comparison with ST 789; for Thymocytes No. (× 10^7): pooled samples
# Description: Test 7 Assessment of the "in vitro-ex vivo" effect of ST 754, ST 785 and ST 789 on the mytogen (PHA, Con A)-induced murine thymocite proliferation.
# The compounds were administered at the dose of 25 mg/kg/day from day -4 to day -1 (thymus excision at day 0). This test was conducted following the procedure described for test 5.
# The Stimulation Index (S.I.) is as defined in test 5.
# DTH reaction vs. SRBC = experiment: Delayed type hypersensitivity test (DTH) vs. SRBC in mice; assay type: in vivo
# Description: Test 6 Assessment of the effect of ST 785 and ST 789 on the delayed type hypersensitivity test (DTH).
# Male B6 D2 F1 mice (Charles River, Italy) aged 6, 12 and 16 weeks (8 animals per group) were used.
# The compounds were administered i.p., 25 mg/kg/day from day -3 to day +3 (immunization at day 0). Immunization was carried out by s.c. injection in the upper dorsal zone of the animals of 0.2 mL of SRBC (5×10^7 cells/mL).
# Four days following the sensitizing injection, the animals were administered the challenge injection to bring about the delayed hypersensibility reaction. 50 μL of SRBC solution (2×10^9 cells/mL) were injected in the left hind foot-pad of the mice. The contralateral foot-pad received an equal volume of PBS. 24 hours after the challenge injection, the animals were sacrificed by cervical dislocation. The legs were amputated and the differences in weight between the left leg (treated with the challenge injection) and the contralateral leg were evaluated.
# The mean of weight differences in the legs of the animals of the same experimental group was determined; the differences in the mean values calculated for each experimental group were processed using Student's "t" test (Biostatistics in Pharmacology, loc cit.).
# The experimental procedure which was used is described by Miller, T. E. et al, (1973), Immunopotentiation with BCG. Modulation of the response to sheep red blood cells. J. Cancer Inst., 51:1669.
# Klebsiella oxytoca = experiment: Protective effect in immunodepressed mice infected with Klebsiella oxytoca; assay type: in vivo; conditions: 25 mg/kg/day i.p. day -5 to -1, versus 44% mortality in the control group
# Description: Test 2 Assessment of the protective effect induced by ST 657, ST 733, ST 754 and ST 789 on immunodepressed mice experimentally infected.
# The immunosuppressor (cyclophosphamide) was administered i.p. in 0.2 mL of sterile saline, 100 mg/kg, 5 days before the infective challenge.
# Compounds ST 733 and ST 754 (relevant data not shown in the tables) were administered i.p. (25 mg/kg/day) from day -5 (cyclophosphamide administration day) to day -1 (challenge at day 0) and tested utilizing Klebsiella oxytoca as infectious agent.
# splenocytes = experiment: "In vitro-ex vivo" mytogen (PHA)-induced splenocyte proliferation in mice
# Description: Test 5 Assessment of the "in vitro-ex vivo" effect of ST 733 and ST 789 on the mytogen (PHA)-induced splenocyte proliferation in mice.
# Male B6 D2 F1 mice (Charles River, Italy) aged 7-8 weeks (4 animals per group) were used.
# PHA (phytohemagglutinine) active on T lymphocytes was used as mytogen. The mytogen was tested at three different concentrations (suboptimal, optimal, superoptimal): 0.5, 2 and 4 mcg/mL/well.
# The compounds were administered i.p. 25 mg/kg/day from day -5 to day -1 (spleen excision at day 0).
# The experimental procedure was conducted substantially as described by Kirchner et al, "Splenic suppressor macrophages induced in mice by injection of C. parvum", J. Immunol., 1975, 115:1212.
# In particular, the cell suspensions obtained from the spleens of the animals of the same group were pooled and the cell concentration was adjusted to 5×10^6 cell/mL.
# To volumes of 0.1 mL of each sample, equal volumes of the mytogen preparation were added so as to obtain the previously indicated final concentrations.
# Each sample was prepared in triplicate in U-bottom microtiters. A control, to which 0.1 mL of medium was added instead of the mytogen, was also prepared. The control permits the extent of spontaneous proliferation in the absence of stimulation to be assessed.
# The samples were incubated at 37° C. for 48 hours and then they were pulsed with 20 μL ^3 H-TdR (25 μCi/mL).
# After 18 hours of further incubation, the cells were collected on filters and counted in a beta-counter to evaluate the incorporated radioactivity (in cpm).
# The results for each sample are expressed by calculating the value of the area under the curve (AUC) obtained by plotting the values of the incorporated radioactivity (in cpm) versus the three concentrations of mytogen.
# In addition to AUC, also the stimulation index (SI) is considered, that is defined as follows: [formula]
# [1] = tested on: responders (thymus of C57B1/6) induced by stimulators (spleen of DBA/2); experiment: "In vitro-ex vivo" mixed lymphocyte reaction (MLR); set-up: species or system mice; conditions: for Body weight / Spleen weight / Thymus weight / ^3 H-TdR Incorporation (cpm ± S.E.) Non stimulated responders / ^3 H-TdR Incorporation (cpm ± S.E.) Stimulated responders / Thymocytes No. (× 10^7): 25 mg/kg/day i.p. from day -5 to day -1; for stimulator splenocytes-induced proliferation of responder thymocytes (in words): comparison with ST 789; for Thymocytes No. (× 10^7): pooled samples
# Description: Test 8 Assessment of the "in vitro-ex vivo" effect of ST 733, ST 754 and ST 789 on the mixed lymphocyte reaction (MLR).
# Male DBA/2 mice (Charles River, Italy) aged 8 weeks were used as "stimulators" (4 animals per group); male inbred C57 B1/6 mice (Charles River, Italy) were used as "responders" (4 animals per group).
# The compounds were administered i.p. from day -5 to day -1 (thymus excision of "responders" at day 0) 25 mg/kg/day.
# The experimental procedure that was used is described by Hudson, L. and Hay, F. C., Practical Immunology, Blackwell Scientific Publication 290 (1980).
# [2] = 25 mg/kg/day i.p. from day -5 to day -1
Compound,Body weight (thymocytes) [g],Thymus weight (thymocytes) [mg],Con A AUC (× 10^-3) (thymocytes),Con A I.S. (stimulation index) (thymocytes),PHA AUC (area under curve) (thymocytes),PHA I.S. (stimulation index) (thymocytes),extent of induced thymocyte proliferation (in words) (thymocytes),Thymocytes No. (× 10^7) (thymocytes),mortality (Klebsiella oxytoca),Body weight [1] [g],Spleen weight [1] [mg],Thymus weight [1] [mg],^3 H-TdR Incorporation (cpm ± S.E.) Non stimulated responders [1] [cpm],^3 H-TdR Incorporation (cpm ± S.E.) Stimulated responders [1] [cpm],stimulator splenocytes-induced proliferation of responder thymocytes (in words) [1],Thymocytes No. (× 10^7) [1],other results
"C[C@H](NC(=O)OCCCCCn1cnc2c(=O)[nH]cnc21)C(=O)N[C@@H](CCCNC(=N)N)C(=O)O [ST 785, N-5-(ipoxantin-9-yl) pentyloxycarbonyl L-alanyl-arginine]",22.5 ± 0.4,73.0 ± 2.7,79 × 10^-3,1.26,4421,1.58,more potent than ST 789,15.1 × 10^7,–,–,–,–,–,–,–,–,"Mean difference in weight (mg ± S.E.) between treated and untreated foot-pads (DTH reaction vs. SRBC; 25 mg/kg/day i.p. from day -3 to day +3 respect to the immunization): 22.4 ± 3.79 mg; response to the DTH test (in words) (DTH reaction vs. SRBC; 25 mg/kg/day i.p., p≤0.01): remarkably reduce"
"C[C@H](NC(=O)OCCCCCn1cnc2c(=O)[nH]cnc21)C(=O)NCC(=O)[O-].[Na+] [ST 733, N-5-(ipoxantin-9-yl) pentyloxycarbonyl L-alanyl-glycine sodium salt]",–,–,–,–,–,–,–,–,no mortality at all,21.8 ± 0.8,88.7 ± 13.6,61.5 ± 2.7,163.0,11187,more potent than ST 789,15.5 × 10^7,"Body weight (splenocytes; [2]): 23.4 ± 0.2 g; Spleen weight (splenocytes; [2]): 74.0 ± 4.0 mg; Thymus weight (splenocytes; [2]): 75.0 ± 4.0 mg; PHA AUC (area under curve, cpm versus three mytogen concentrations) (splenocytes; PHA 0.5, 2 and 4 mcg/mL/well, 25 mg/kg/day i.p. from day -5 to day -1): 160 × 10^-3; PHA I.S. (stimulation index) (splenocytes; PHA-induced proliferation, 25 mg/kg/day i.p. from day -5 to day -1): 1.82; mytogen-induced proliferation versus the controls (in words) (splenocytes; PHA, 25 mg/kg/day i.p.): remarkable increase; Splenocytes No. (× 10^7) (splenocytes; pooled samples, 25 mg/kg/day i.p. from day -5 to day -1): 14.7 × 10^7"
N-5-(ipoxantin-9-yl) pentyloxycarbonyl L-(alpha) aspartyl L-arginine sodium salt [ST 754],22.9 ± 0.5,74.0 ± 3.4,78 × 10^-3,1.25,3132,1.12,more potent than ST 789,15.4 × 10^7,no mortality at all,22.3 ± 0.5,81.2 ± 3.3,57.5 ± 8.4,89.2,11011,more potent than ST 789,12.9 × 10^7,–
